{
  "source": "paper PMC10158761",
  "about": "“Screening of an annexin‐A2‐targeted heptapeptide for pancreatic adenocarcinoma localization” (Molecular Oncology, 2022)",
  "key": {"ANXA2": {"system": "ANXA2", "experiment": "siRNA knockdown of ANXA2 in PANC‐1 cells (western blotting, qPCR)", "assay_type": "cell-based, human", "conditions": "48 h after transfection, lipofectamine 3000; n = 3", "experimental": "ANXA2 expression in human cells and patients' tissues was determined by western blotting. Cells were lysed on ice in RIPA Lysis Buffer (Beyotime, Shanghai, China) with 1% PMSF for 30 min. Fresh tissues were suspended in RIPA Lysis Buffer with 1% PMSF, homogenized for 2 min, and then lysed on ice for another 30 min. The supernatant was collected and the protein concentration was determined after centrifuging for 10 min at 8000 g . The protein concentration was detected by BCA Protein Assay Kit (Beyotime). Proteins extracts were separated by 12% SDS/PAGE gel and then transferred to the PVDF membranes. Next, the membranes were blocked with 5% skimmed milk powder at room temperature for 1 h. Rabbit primary antibodies specific to ANXA2 (1 : 1000; Cell Signaling Technology, Billerica, CA, USA; #8235S) were used to incubate the membranes at 4 °C overnight. Anti‐β‐tubulin mouse primary antibodies (1 : 5000; EarthOx Life Science, Millbrae, CA, USA; E021040‐01) were applied as a loading control. […] The band density was quantified by IMAGEJ software (National Institutes of Health, Bethesda, MD, USA).\nSmall interfering RNA (primer sequences: forward 5′‐[…]‐3′ and reverse 5′‐[…]‐3′) was used to downregulate the expression of ANXA2 (si‐ANXA2). […] Knockdown efficiency was evaluated by western blotting and quantitative real‐time PCR. […]"}, "[1]": {"system": "PANC‐1 and HPDE6‐C7 cells", "experiment": "Fluorescence imaging, PANC‐1 versus HPDE6‐C7 cells", "assay_type": "cell-based, human", "experimental": "(§1) PANC‐1 and HPDE6‐C7 cells were seeded in six‐well plates at a density of 3 × 10^5 cells·mL^−1 and incubated overnight. The cells were incubated with 25 μM FITC‐YW7 for 30 min and 1 h for flow cytometry analysis of bound and internalized peptide, and cells were incubated with 1, 2, 4 μM FITC‐YW7 or Cy7‐YW7 for 1 h for fluorescence imaging of the live cells. Cells were washed with PBS three times and centrifuged for 5 min after 37 °C incubation. Si‐ANXA2‐ or si‐NC‐transfected PANC‐1 cells were detached with nonenzymatic dissociation solution from six‐well plates. 20 μM FITC‐YW7 was added to the suspended cells and incubated at 37 °C for 15 min. Cells were washed with PBS and centrifuged for 5 min repeating three times. The supernatant was then discarded and the cells were resuspended in PBS. Percent of total cells with fluorescent signals was determined by flow cytometry using a FACSCelesta flow cytometer (BD Biosciences, San Jose, CA, USA). Fluorescence intensity was quantified by an imaging system (Berthold LB983, Bad Wildbad, Sttugart, Germany).\n(§2) Supplementary file MOL2-17-872-s002.tif: Fig. S3. Fluorescent‐labeled YW7 probes imaging in vitro. […] P values were determined using paired Student's t‐test. *P < 0.05 versus HPDE6‐C7 (Cy7‐YW7); ^# P < 0.05, ^## P < 0.01 versus PBS; ^$ P < 0.05, ^$$ P < 0.01 versus Cy7. […]"}, "PANC‐1 xenograft tumors": {"system": "PANC‐1 xenograft tumors", "experiment": "In vivo NIRF imaging of PANC‐1 xenograft mice", "design": "species or system mouse (BALB/c nude)", "description": "During imaging, mice were anesthetized with 2% isoflurane."}, "PANC‐1 cells": {"system": "PANC‐1 cells", "experiment": "Fluorescence imaging of PANC‐1 cells with labelled YW7 probes", "assay_type": "cell-based, human", "conditions": "1, 2, 4 μM, 1 h; red filter 700–780 nm", "experimental": "as §1, §2"}, "[2]": {"system": "ANXA2 (purified recombinant)", "experiment": "ANXA2 affinity column binding with LC/MS detection", "conditions": "ANXA2 0.7 mg on CNBr‐activated Sepharose; 1 mg YW7; 1 h at 4 °C; UPLC‐G2XS‐QTOF/MS", "experimental": "To prepare the ANXA2‐immobilized affinity column, CNBr‐activated Sepharose (GE Healthcare Bio‐Sciences AB, Uppsala, Sweden) was swelled by 1 mM HCl and coupling buffer. Purified recombinant ANXA2 of 0.7 mg was loaded onto the resin and incubated at 4 °C overnight. After blocking with ethanolamine, the resin was washed with 50 mM Tris–HCl (pH 8.0) and 50 mM Glycine‐0.5 M NaCl (pH 4.0) buffers alternatively for three rounds. Then, the resin was washed with PBS and 1 mg YW7 dissolved in DEPC was added to the ANXA2‐loaded resin. After binding for 1 h at 4 °C, the resin was washed again with 50 mM Tris–HCl (pH 8.0) and 50 mM Glycine‐0.5 M NaCl (pH 4.0) buffers. Eluents were eventually mixed with 50% acetonitrile and analyzed by UPLC‐G2XS‐QTOF/MS (Waters, Milford, MA, USA)."}, "[3]": {"target": "T1, ANXA2 on pancreatic cells (human (endogenous in PANC-1 and …, UniProt P07355 1-339))", "T1 construct": "annexin A2, endogenous in the human pancreatic cancer cell line PANC-1 and the normal human pancreatic ductal cell line HPDE6-C7; which cell line was used is told in each assay's format; also called annexin A2; source: endogenous, on PANC-1 cells; endogenous, on HPDE6-C7 cells", "T1 sequence (P07355 whole entry)": "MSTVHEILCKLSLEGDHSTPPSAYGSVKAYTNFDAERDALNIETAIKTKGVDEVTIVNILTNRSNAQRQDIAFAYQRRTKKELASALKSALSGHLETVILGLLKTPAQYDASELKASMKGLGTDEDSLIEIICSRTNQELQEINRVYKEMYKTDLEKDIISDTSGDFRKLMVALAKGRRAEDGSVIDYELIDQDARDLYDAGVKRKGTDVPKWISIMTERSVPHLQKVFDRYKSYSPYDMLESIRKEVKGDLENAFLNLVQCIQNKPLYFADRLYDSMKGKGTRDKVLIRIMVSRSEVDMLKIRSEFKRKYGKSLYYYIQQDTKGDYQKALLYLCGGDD", "experiment": "other fluorescence titration; PANC-1 cells suspended in FITC-YW7 (0-1.5 μM), 37 °C, 30 min; washed with PBS; fluorescence of the cells read in a plate reader (490/518 nm); apparent Kd", "conditions": "one partner purified"}, "[4]": {"target": "T2, GST-fused ANXA2 recombinant protein (UniProt P07355 1-339)", "T2 construct": "product of 62 kD with GST; No cleavage of GST is described; The size of 62 kD would fit whole ANXA2 (36 kD) plus GST; also called GST-ANXA2; annexin A2; source: E. coli BL21 (DE3), purified (GST tag purification resin)", "T2 sequence (P07355 whole entry, the tested form may be a part)": "as the sequence (P07355 whole entry) above", "experiment": "MST; FITC-YW7 at constant concentration, unlabeled ANXA2 diluted in a gradient; MST buffer with 0.05% Tween-20; Monolith NT.115, standard capillaries; apparent KD", "conditions": "both partners purified"}},
  "note": "“Also recorded” adds a separate entry of the source. Primed or numbered codes have the meaning given here. Where no end group is shown, it is not given here. The star is where a group is joined. FITC = O=C1OC2(c3ccc(O)cc3Oc3cc(O)ccc32)c2ccc(NC(=S)*)cc21; PEG3′ = not defined here; Ahx = NCCCCCC(=O)O",
  "data": [
    {"molecule": "si‐ANXA2: Small interfering RNA, forward 5′‐AGACCAAAGGUGUGGAUGAUU‐3′ and reverse 5′‐UCAUCCACACCUUUGGUCUUU‐3′ (chemistry not fully specified)", "values": [
      {"measurement": "ANXA2 protein and mRNA level after knockdown", "setting": "ANXA2", "result": "Downregulated ANXA2 relative protein (D, E) and mRNA (F) levels"}
    ]},
    {"molecule": "Cy7‐YW7: Cy7 linked to the N terminal of YW7 peptide via spacer of PEG3; NIRF probe ({Cy7-PEG3′}-YWRGVYN)", "values": [
      {"measurement": "fluorescence signal, PANC‐1 versus HPDE6‐C7", "setting": "[1]; 4 μM in PBS", "result": "stronger fluorescence signal of Cy7‐YW7 was detected after internalization into PANC‐1 cells compared to HPDE6‐C7"},
      {"measurement": "uptake in PANC‐1 compared to HPDE6‐C7 cells", "setting": "[1]; summary statement of abstract", "result": "significantly higher uptake in PANC‐1 cells"},
      {"measurement": "TBR, as quoted in discussion", "setting": "PANC‐1 xenograft tumors; 8 nmol i.v.", "result": "~ 2.7"},
      {"measurement": "earliest time of significant tumor‐to‐background contrast", "setting": "PANC‐1 xenograft tumors; 8 nmol i.v.", "result": 1, "unit": "h"},
      {"measurement": "tumor‐to‐background ratio (TBR)", "setting": "PANC‐1 xenograft tumors; 8 nmol i.v., 2.5 h after injection, n = 4, mean ± SD, P < 0.05 Cy7‐YW7 vs Cy7", "result": "2.7 ± 0.6"},
      {"measurement": "tumor fluorescence / contrast", "setting": "PANC‐1 xenograft tumors; 8 nmol i.v., Cy7‐YW7 versus Cy7, n = 4", "result": "stronger fluorescence signals in tumor tissues; also recorded: higher than Cy7; also recorded: enhanced tumor sensitivity and specificity from 1 h after injection"},
      {"measurement": "time of highest TBR after injection", "setting": "PANC‐1 xenograft tumors; 8 nmol i.v., images at 0, 1, 2, 2.5, 3 h", "result": 2.5, "unit": "h"},
      {"measurement": "TBR compared to Cy7 alone", "setting": "PANC‐1 xenograft tumors; intravenous injection, in abstract", "result": "~ 2.7 ‐fold"},
      {"measurement": "internalization by PANC‐1 cells, concentration dependence", "setting": "PANC‐1 cells", "result": "preferred to be internalized by PANC‐1 cells in a dose‐dependent manner"}
    ]},
    {"molecule": "YWRGVYN [YW7]", "values": [
      {"measurement": "binding to ANXA2 column", "setting": "[2]", "result": "eluted from ANXA2‐loading column after incubation with ANXA2 recombinant protein for 1 h and identified"}
    ]},
    {"molecule": "{FITC-Ahx}-YWRGVYN (heptapeptide YW7 selected from the Ph.D.-7 phage display library; also called FITC-YW7; source: synthetic peptide, Sangon Biotech)", "note": "[FITC-labeled YW7]", "values": [
      {"measurement": "Kd", "setting": "[3]", "result": 0.0866, "unit": "µM"},
      {"measurement": "Kd", "setting": "[4]", "result": 12, "unit": "µM"}
    ]}
  ]
}
